Measured values taken from ChEMBL document CHEMBL6083182, “Development of Peptide Paratope Mimics Derived from the Anti-ROR1 Antibody and Long-Acting Peptide-Drug Conjugates for Targeted Cancer Therapy” (J Med Chem, 2024).
pIC50, pKd: −log10 of the molar value. The source made the active and inactive calls. The calls are words filed in the database; no cut-off is given here. *1 amine or outer side, *2 acyl side, *3 side chain or, on linkers, in order; H or OH if unused. Where a SMILES comes first, the peptide text is derived from it. [ ]: non-standard residue; d: D form. The star is where a group is joined. ξ: configuration not given here. Glutaryl(5-(14-O-Dox)) = COc1cccc2c1C(=O)c1c(O)c3c(c(O)c1C2=O)C[C@@](O)(C(=O)COC(=O)CCCC(=O)*)C[C@@H]3O[C@H]1C[C@H](N)[C@H](O)[C@H](C)O1; X7 = COc1cccc2c1C(=O)c1c(O)c3c(c(O)c1C2=O)C[C@@](O)(C(=O)CO)C[C@@H]3O[C@H]1C[C@H](NC(=O)CCCCCN2C(=O)CC(*)C2=O)[C@H](O)[C@H](C)O1; X5 = O=C(O)CCCCCCCCCCCCCCCCC(=O)NC(CCC(=O)NCCOCCOCC(=O)NCCOCCOCC(=O)NC(CCCCNC(=O)CCN1C(=O)CC(*)C1=O)C(=O)O)C(=O)O; X3 = CC(C)C(NC(=O)CCCCCN1C(=O)CC(*)C1=O)C(=O)NC(CCCNC(N)=O)C(=O)Nc1ccc(OCC2OC(n3ccc(N)nc3=O)C(F)(F)C2O)cc1; X6 = Nc1ccn(C2OC(COC(=O)CCCCCN3C(=O)CC(*)C3=O)C(O)C2(F)F)c(=O)n1; X2 = NC(=O)C[C@H](N[*:1])C(=O)C[C@@H](CC(=O)O)C(=O)[*:2]; X4 = Nc1ccn(C2OC(COC(=O)CCCC(=O)*)C(O)C2(F)F)c(=O)n1; C18 diacid = O=C(O)CCCCCCCCCCCCCCCCC(=O)*; ξγGlu = O=C(O)C(CCC(=O)[*:2])N[*:1]; AEEA = NCCOCCOCC(=O)O

Columns and labels:
[1] = molecular target: T1, Inactive tyrosine-protein kinase transmembrane receptor ROR1 (Homo sapiens, UniProt Q01973); test: Binding affinity to N-terminal His/GST-tagged recombinant human ROR1 (453 to 783 residues) extracted from baculovirus infected insect cells assessed as dissociation constant by SPR analysis
MCF7 [2] = test: Binding affinity to ROR1 negative human MCF7 cells at 10 uM administered as FITC-labeled compound and measured after 30 mins by Hoechst 33342 staining based confocal fluorescence microscopic analysis; assay type: functional, cell-based
[3] = molecular target: T1, Inactive tyrosine-protein kinase transmembrane receptor ROR1; test: Binding affinity to ROR1 positive human MDA-MB-231 cells at 10 uM administered as FITC-labeled compound and measured after 30 mins by Hoechst 33342 staining based confocal fluorescence microscopic analysis; assay type: cell-based
Homo sapiens = organism: Homo sapiens; test: Binding affinity to CD16A (unknown origin) by SPR analysis
SK-HEP1 = test: Cytotoxicity against human SK-HEP1 cells assessed as decrease in cell viability incubated for 24 hrs by CCK-8 assay; assay type: functional, cell-based; conditions: SK-HEP1, 24 h
[4] = Cytotoxicity against human MCF-10A cells assessed as decrease in cell viability incubated for 24 hrs by CCK-8 assay; assay type: toxicity, cell-based
MCF7 [5] = test: Cytotoxicity against ROR1-negative human MCF7 cells assessed as decrease in cell viability incubated for 24 hrs by CCK-8 assay; assay type: functional, cell-based; conditions: MCF7, 24 h
MDA-MB-231 = test: Cytotoxicity against ROR1-positive human MDA-MB-231 cells assessed as decrease in cell viability incubated for 24 hrs by CCK-8 assay; assay type: functional, cell-based; conditions: MDA-MB-231, 24 h

T1 sequence (Q01973 whole entry, the tested form may be a part): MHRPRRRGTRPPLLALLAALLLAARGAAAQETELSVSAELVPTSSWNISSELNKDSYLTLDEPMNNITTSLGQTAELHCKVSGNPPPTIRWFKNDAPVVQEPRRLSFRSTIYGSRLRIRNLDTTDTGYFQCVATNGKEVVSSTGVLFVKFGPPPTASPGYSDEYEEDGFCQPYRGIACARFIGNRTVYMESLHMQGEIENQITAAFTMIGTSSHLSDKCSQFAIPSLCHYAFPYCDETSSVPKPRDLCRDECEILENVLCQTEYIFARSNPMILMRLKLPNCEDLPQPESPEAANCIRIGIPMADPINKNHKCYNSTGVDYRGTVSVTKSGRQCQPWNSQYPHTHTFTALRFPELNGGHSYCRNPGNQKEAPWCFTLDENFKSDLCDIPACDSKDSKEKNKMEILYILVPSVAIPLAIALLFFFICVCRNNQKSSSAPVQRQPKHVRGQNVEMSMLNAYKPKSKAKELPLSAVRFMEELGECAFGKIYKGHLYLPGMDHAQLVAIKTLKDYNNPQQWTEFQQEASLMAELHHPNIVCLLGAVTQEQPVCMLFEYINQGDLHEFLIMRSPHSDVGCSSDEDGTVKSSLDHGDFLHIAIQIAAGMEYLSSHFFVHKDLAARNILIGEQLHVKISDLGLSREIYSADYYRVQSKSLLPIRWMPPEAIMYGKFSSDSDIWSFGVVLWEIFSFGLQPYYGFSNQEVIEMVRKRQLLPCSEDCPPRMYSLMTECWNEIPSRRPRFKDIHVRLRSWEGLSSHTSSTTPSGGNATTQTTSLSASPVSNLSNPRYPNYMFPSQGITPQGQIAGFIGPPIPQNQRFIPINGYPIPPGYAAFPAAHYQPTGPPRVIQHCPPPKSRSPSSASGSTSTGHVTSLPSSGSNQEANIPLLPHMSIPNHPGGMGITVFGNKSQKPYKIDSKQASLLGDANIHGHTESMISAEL

| Compound | pKd [1] | Activity (MCF7 [2]) | Activity [3] | Activity (Homo sapiens) | pIC50 (SK-HEP1) | IC50 at 24 h [4] [µM] | pIC50 (MCF7 [5]) | pIC50 (MDA-MB-231) |
| --- | --- | --- | --- | --- | --- | --- | --- | --- |
| H-SDINDYPIPGYSTYYGDF-NH2 | 8.53 | inactive | Active | Not active; Abnormal Binding Affinity Curves Observed |  |  |  |  |
| CC[C@H](C)[C@H](NC(=O)[C@H](CC(=O)O)NC(=O)[C@H](CO)NC(=O)CNC(=O)[C@H](CSC1CC(=O)N(CCC(=O)NCCCCC(NC(=O)COCCOCCNC(=O)COCCOCCNC(=O)CCC(NC(=O)CCCCCCCCCCCCCCCCC(=O)O)C(=O)O)C(=O)O)C1=O)NC(=O)CNC(=O)[C@H](CCCCN)NC(=O)CCCC(=O)OCC1OC(n2ccc(N)nc2=O)C(F)(F)C1O)C(=O)N[C@@H](CC(N)=O)C(=O)N[C@@H](CC(=O)O)C(=O)N[C@@H](CCCNC(=N)N)C(=O)N[C@@H](CCC(N)=O)C(=O)N[C@H](C(=O)N1CCC[C@H]1C(=O)NCC(=O)N[C@@H](Cc1ccc(O)cc1)C(=O)N[C@@H](CO)C(=O)N[C@H](C(=O)N[C@@H](Cc1ccc(O)cc1)C(=O)N[C@@H](Cc1c[nH]c2ccccc12)C(=O)NCC(=O)N[C@@H](CC(=O)O)C(=O)N[C@@H](Cc1ccccc1)C(N)=O)[C@@H](C)O)[C@@H](C)CC (some centres not stated) (X4-KGC(X5)GSDINDRQIPGYSTYWGDF-NH2) | 7.40 |  |  |  | 5.12 | 27.9 | 4.75 | 6.52 |
| H-INSGPSDINDRQIPGYSTYWGDF-NH2 | 6.58 |  |  |  |  |  |  |  |
| CC[C@H](C)[C@H](NC(=O)[C@H](CC(=O)O)NC(=O)[C@H](CO)NC(=O)CNC(=O)[C@H](CSC1CC(=O)N(CCCCCC(=O)OCC2OC(n3ccc(N)nc3=O)C(F)(F)C2O)C1=O)NC(=O)CNC(=O)[C@H](CCCCN)NC(=O)COCCOCCNC(=O)COCCOCCNC(=O)CCC(NC(=O)CCCCCCCCCCCCCCCCC(=O)O)C(=O)O)C(=O)N[C@@H](CC(N)=O)C(=O)N[C@@H](CC(=O)O)C(=O)N[C@@H](CCCNC(=N)N)C(=O)N[C@@H](CCC(N)=O)C(=O)N[C@H](C(=O)N1CCC[C@H]1C(=O)NCC(=O)N[C@@H](Cc1ccc(O)cc1)C(=O)N[C@@H](CO)C(=O)N[C@H](C(=O)N[C@@H](Cc1ccc(O)cc1)C(=O)N[C@@H](Cc1c[nH]c2ccccc12)C(=O)NCC(=O)N[C@@H](CC(=O)O)C(=O)N[C@@H](Cc1ccccc1)C(N)=O)[C@@H](C)O)[C@@H](C)CC (some centres not stated) ({C18 diacid-ξγGlu-AEEA-AEEA}-KGC(X6)GSDINDRQIPGYSTYWGDF-NH2) | 6.91 |  |  |  | 4.58 | 30.1 | 4.78 | 4.80 |
| H-SDINDRQI-NH2 | 7.58 |  |  |  |  |  |  |  |
| Nc1ccn([C@@H]2O[C@H](CO)[C@@H](O)C2(F)F)c(=O)n1 [GEMCITABINE] |  |  |  |  | 5.44 | 3.23 | 5.32 | 5.75 |
| H-GYSTYWGDF-NH2 | 6.83 |  |  |  |  |  |  |  |
| H-INSGPGYSTYYGDF-NH2 | 8.92 | inactive | Active | Not active; Abnormal Binding Affinity Curves Observed |  |  |  |  |
| CC[C@H](C)[C@H](NC(=O)[C@H](CC(=O)O)NC(=O)[C@H](CO)NC(=O)CNC(=O)[C@H](CSC1CC(=O)N(CCC(=O)NCCCCC(NC(=O)COCCOCCNC(=O)COCCOCCNC(=O)CCC(NC(=O)CCCCCCCCCCCCCCCCC(=O)O)C(=O)O)C(=O)O)C1=O)NC(=O)CNC(=O)[C@H](CCCCN)NC(=O)CCCC(=O)OCC(=O)[C@]1(O)Cc2c(O)c3c(c(O)c2[C@@H](O[C@H]2C[C@H](N)[C@H](O)[C@H](C)O2)C1)C(=O)c1c(OC)cccc1C3=O)C(=O)N[C@@H](CC(N)=O)C(=O)N[C@@H](CC(=O)O)C(=O)N[C@@H](CCCNC(=N)N)C(=O)N[C@@H](CCC(N)=O)C(=O)N[C@H](C(=O)N1CCC[C@H]1C(=O)NCC(=O)N[C@@H](Cc1ccc(O)cc1)C(=O)N[C@@H](CO)C(=O)N[C@H](C(=O)N[C@@H](Cc1ccc(O)cc1)C(=O)N[C@@H](Cc1c[nH]c2ccccc12)C(=O)NCC(=O)N[C@@H](CC(=O)O)C(=O)N[C@@H](Cc1ccccc1)C(N)=O)[C@@H](C)O)[C@@H](C)CC (some centres not stated) ({Glutaryl(5-(14-O-Dox))}-KGC(X5)GSDINDRQIPGYSTYWGDF-NH2) | 7.18 |  |  |  | 5.90 | 10.1 | 4.77 | 5.55 |
| CC[C@H](C)[C@H](NC(=O)[C@H](CC(=O)O)NC(=O)[C@H](CO)NC(=O)CNC(=O)[C@H](CSC1CC(=O)N(CCCCCC(=O)N[C@H]2C[C@H](O[C@H]3C[C@](O)(C(=O)CO)Cc4c(O)c5c(c(O)c43)C(=O)c3c(OC)cccc3C5=O)O[C@@H](C)[C@H]2O)C1=O)NC(=O)CNC(=O)[C@H](CCCCN)NC(=O)COCCOCCNC(=O)COCCOCCNC(=O)[C@H](CCC(=O)O)NC(=O)CCCCCCCCCCCCCCCCC(=O)O)C(=O)N[C@@H](CC(N)=O)C(=O)N[C@@H](CC(=O)O)C(=O)N[C@@H](CCCNC(=N)N)C(=O)N[C@@H](CCC(N)=O)C(=O)N[C@H](C(=O)N1CCC[C@H]1C(=O)NCC(=O)N[C@@H](Cc1ccc(O)cc1)C(=O)N[C@@H](CO)C(=O)N[C@H](C(=O)N[C@@H](Cc1ccc(O)cc1)C(=O)N[C@@H](Cc1c[nH]c2ccccc12)C(=O)NCC(=O)N[C@@H](CC(=O)O)C(=O)N[C@@H](Cc1ccccc1)C(N)=O)[C@@H](C)O)[C@@H](C)CC (some centres not stated) ({C18 diacid}-E[AEEA][AEEA]KGC(X7)GSDINDRQIPGYSTYWGDF-NH2) | 6.82 |  |  |  | 4.70 | 27.3 | 4.45 | 4.84 |
| H-INSGPSDINDYPIPGYSTYYGDF-NH2 | 6.15 |  |  |  |  |  |  |  |
| CC[C@H](C)[C@H](NC(=O)[C@H](CC(=O)O)NC(=O)[C@H](CO)NC(=O)CNC(=O)[C@H](CSC1CC(=O)N(CCCCCC(=O)NC(C(=O)NC(CCCNC(N)=O)C(=O)Nc2ccc(OCC3OC(n4ccc(N)nc4=O)C(F)(F)C3O)cc2)C(C)C)C1=O)NC(=O)CNC(=O)[C@H](CCCCN)NC(=O)COCCOCCNC(=O)COCCOCCNC(=O)CCC(NC(=O)CCCCCCCCCCCCCCCCC(=O)O)C(=O)O)C(=O)N[C@@H](CC(N)=O)C(=O)C[C@@H](CC(=O)O)C(=O)N[C@@H](CCCNC(=N)N)C(=O)N[C@@H](CCC(N)=O)C(=O)N[C@H](C(=O)N1CCC[C@H]1C(=O)NCC(=O)N[C@@H](Cc1ccc(O)cc1)C(=O)N[C@@H](CO)C(=O)N[C@H](C(=O)N[C@@H](Cc1ccc(O)cc1)C(=O)N[C@@H](Cc1c[nH]c2ccccc12)C(=O)NCC(=O)N[C@@H](CC(=O)O)C(=O)N[C@@H](Cc1ccccc1)C(N)=O)[C@@H](C)O)[C@@H](C)CC (some centres not stated) ({C18 diacid-ξγGlu-AEEA-AEEA}-KGC(X3)GSDI[X2]RQIPGYSTYWGDF-NH2) | 7.55 |  |  |  | 5.91 | 14.6 | < 4.30 | 5.17 |
| H-INSGPSDINDYPI-NH2 | 7.39 |  |  |  |  |  |  |  |
